Experimental data published in PubChem BioAssay AID2024 (Southern Research Specialized Biocontainment Screening …, 2009).
Activity calls are given as the source filed them. No rule for the calls is given here.

System: virus-infected cells, titer reduction, log titer change
Assay: antiviral yield reduction in infected cells – cell-based, 55 compounds from dose-response study, confirmation (AID 2024)
Settings: at 10 µM (top of the series)

**Q.** Which log titer change, negative = reduction does the source give for `CCN1CCN(CCCNC(=O)c2cc3c(s2)-c2ccccc2OC3)CC1` here?
**A.** -0.5 (inactive)

**Q.** With `CCN(CC)CCNC(=O)c1sc2ncn(CC(=O)Nc3ccc(C)c(Cl)c3)c(=O)c2c1C` as the compound, how does the log titer change, negative = reduction read?
**A.** 0.5 (inactive)

**Q.** How did the log titer change, negative = reduction turn out when `Cn1c(=O)[nH]c(=O)c2c1nc(N1CCN(C(c3ccccc3)c3ccccc3)CC1)n2CCO` was run?
**A.** -1.17

**Q.** How did the log titer change, negative = reduction turn out when `CC1=CC(C)(C)N2C(=O)C3(NCCc4c3[nH]c3ccccc43)c3cc(C)cc1c32` (stereo not drawn) was run?
**A.** -1.27

Same assay, conditions: at 20 µM (top of the series)

**Q.** Which log titer change, negative = reduction does the source give for `CCN(CC)CCCNC(=S)N1CCN(c2nc(-c3ccccc3)cs2)CC1` here?
**A.** -0.57 (inactive)

**Q.** `Cc1c(Cc2ccccc2)c(NCCN(C)C)n2c(nc3ccccc32)c1C#N` was tested. Which log titer change, negative = reduction did it give?
**A.** 0.43 (inactive)

**Q.** With `Cc1ccc2[nH]c(=O)c(CN(CCCN(C)C)C(=O)Nc3ccc(Cl)cc3)cc2c1` as the compound, how does the log titer change, negative = reduction read?
**A.** -2.15

**Q.** `CN(C)CCCN1c2ccc([N+](=O)[O-])cc2CCc2cc([N+](=O)[O-])ccc21` was tested. Which log titer change, negative = reduction did it give?
**A.** 0 (inactive)

**Q.** Which log titer change, negative = reduction does the source give for `CCN1CCN(CCCNC(=O)C2CCCN(c3nc4c(C)cc(C)cc4s3)C2)CC1` (stereo not drawn) here?
**A.** -0.36 (inactive)

**Q.** Which log titer change, negative = reduction does the source give for `COc1ccc(C2c3ccc4ccccc4c3Oc3ncn(CCCO)c(=N)c32)cc1OC` (stereo not drawn) here?
**A.** 0.54 (inactive)

**Q.** For `Cc1ccc2cc(C#N)c(N3CCCN(C(=S)NCCCN(C)C)CC3)nc2c1`, which log titer change, negative = reduction is on record?
**A.** -0.02 (inactive)

**Q.** For `CCN1CCN(c2ncc(C(=O)Nc3cc(Cl)c(OC)cc3OC)c3ccccc23)CC1`, which log titer change, negative = reduction is on record?
**A.** -0.17 (inactive)

**Q.** For `COc1ccc(C2c3c(ncn(CCN4CCOCC4)c3=N)Oc3ccc4ccccc4c32)cc1` (stereo not drawn), which log titer change, negative = reduction is on record?
**A.** 0.93 (inactive)

**Q.** For `Cc1c(NC(=O)COC(=O)c2cc(-c3ccc(-c4ccccc4)cc3)nc3ccccc23)c(=O)n(-c2ccccc2)n1C`, which log titer change, negative = reduction is on record?
**A.** 0.31 (inactive)

**Q.** With `CC1CCN(CCCNC(=O)c2cc3c(s2)-c2ccccc2OC3)CC1` as the compound, how does the log titer change, negative = reduction read?
**A.** 0.43 (inactive)

**Q.** With `CC(C)c1oc(=O)cc2c1[C@@H](O)[C@H]1OC(=O)[C@@]3(C)C[C@@H](O)[C@@H](O)[C@@]2(C)C13` (stereo partly drawn) as the compound, how does the log titer change, negative = reduction read?
**A.** -0.25 (inactive)

**Q.** With `CCN1CCN(CCCNC(=O)c2ccc3c(Cl)c4c(nc3c2)CCCC4)CC1` as the compound, how does the log titer change, negative = reduction read?
**A.** -0.02 (inactive)

**Q.** With `Cc1cc(C)cc(SCc2noc(C(=O)NCCN(C)C)c2C(=O)NCCN(C)C)c1` as the compound, how does the log titer change, negative = reduction read?
**A.** -0.17 (inactive)

**Q.** How did the log titer change, negative = reduction turn out when `CC[C@@H](C(=O)[C@@H](C)[C@@H](O)[C@H](C)CCc1ccc(C)c(O)c1C(=O)O)[C@H]1O[C@](CC)([C@H]2CC[C@](O)(CC)[C@H](C)O2)C[C@@H]1C` was run?
**A.** 0.14 (inactive)

**Q.** For `COc1ccc(-c2csc(N(CCCN(C)C)C(=O)c3ccccc3Cl)n2)cc1`, which log titer change, negative = reduction is on record?
**A.** -1.5

**Q.** How did the log titer change, negative = reduction turn out when `CCN(CC)CCn1c(=N)n(CC(=O)c2ccc(Br)s2)c2ccccc21` was run?
**A.** 0.31 (inactive)

**Q.** With `CC1CCCC(C)N1CCCNC(=O)c1cc2c(s1)-c1ccccc1OC2` (stereo not drawn) as the compound, how does the log titer change, negative = reduction read?
**A.** 0.43 (inactive)

**Q.** `CN1CCN(CCNC(=O)c2ccc3nc(-c4ccc(F)cc4)c(-c4ccc(F)cc4)nc3c2)CC1` was tested. Which log titer change, negative = reduction did it give?
**A.** -0.03 (inactive)

**Q.** Which log titer change, negative = reduction does the source give for `CN(C)CC(O)COc1ccc(C(C)(C)c2ccc(OCC(O)CN(C)C)cc2)cc1` (stereo not drawn) here?
**A.** -1.17

**Q.** With `CCN(CC)CCCNC(=O)c1cc2c(-c3cccc(OC)c3)nn(C)c2s1` as the compound, how does the log titer change, negative = reduction read?
**A.** 0.93 (inactive)

**Q.** With `COc1ccc(C2c3ccc4ccccc4c3Oc3ncn(CCO)c(=N)c32)cc1` (stereo not drawn) as the compound, how does the log titer change, negative = reduction read?
**A.** 0.39 (inactive)

**Q.** With `O=C(CSc1nc2ccccc2c(=O)n1-c1ccc(F)cc1F)Nc1ccc2c(c1)CCC2` as the compound, how does the log titer change, negative = reduction read?
**A.** -2.18

**Q.** `CC(C)c1oc(=O)cc2c1[C@@H](O)[C@H]1OC(=O)[C@@]3(C)CC[C@@H](O)[C@@]2(C)C13` (stereo partly drawn) was tested. Which log titer change, negative = reduction did it give?
**A.** -1.17

**Q.** With `NCCCNc1nc(N)c([N+](=O)[O-])c(NC2CCCCC2)n1` as the compound, how does the log titer change, negative = reduction read?
**A.** -4.74

**Q.** `CN(C)CCCN(C(=O)c1ccc2c(c1)OCCO2)c1nc2ccc(Cl)cc2s1` was tested. Which log titer change, negative = reduction did it give?
**A.** -0.33 (inactive)

**Q.** `CN1CCN(CCCN2c3ccccc3Sc3ccc(Cl)cc32)CC1` was tested. Which log titer change, negative = reduction did it give?
**A.** -0.64 (inactive)

**Q.** With `Brc1ccc2c(c1)CN1CCCC1=N2` as the compound, how does the log titer change, negative = reduction read?
**A.** -1.9

**Q.** For `CN(C)CCCNC(=O)c1cc2sc3ccccc3c2s1`, which log titer change, negative = reduction is on record?
**A.** -0.17 (inactive)

**Q.** For `CCN(CC)CCNC(=O)C1CCN(S(=O)(=O)c2c(C)noc2/C=C/c2ccccc2F)CC1`, which log titer change, negative = reduction is on record?
**A.** 0.27 (inactive)

**Q.** For `CN(CCCNC(=O)c1cc2c(Cl)nc3ccccc3c2s1)Cc1ccccc1`, which log titer change, negative = reduction is on record?
**A.** 0.43 (inactive)

**Q.** How did the log titer change, negative = reduction turn out when `CCN(CC)CCCC(C)NC(=O)c1c(NC(=O)c2ccccc2)sc2c1CCCC2` (stereo not drawn) was run?
**A.** 0.55 (inactive)

**Q.** With `O=C(Oc1ccccc1)c1ccc(-n2cnnn2)cc1` as the compound, how does the log titer change, negative = reduction read?
**A.** -0.73 (inactive)

**Q.** For `CCOc1ccc(/C=C/c2nc(C#N)c(NCCCN(C)C)o2)cc1`, which log titer change, negative = reduction is on record?
**A.** 0.31 (inactive)

**Q.** Which log titer change, negative = reduction does the source give for `CN(C)CCCNC(=S)N1CCN(c2nc(-c3ccccc3)cs2)CC1` here?
**A.** -0.02 (inactive)

**Q.** How did the log titer change, negative = reduction turn out when `COc1cc2c(OC(C)=O)c3c(c(-c4ccc5c(c4)OCO5)c2cc1OC)C(=O)OC3` was run?
**A.** -2

**Q.** With `Cc1ccc(C)c(N2CCN(CCCNC(=O)CCC(=O)N3CCOc4ccc(Cl)cc43)CC2)c1` as the compound, how does the log titer change, negative = reduction read?
**A.** -0.03 (inactive)

**Q.** How did the log titer change, negative = reduction turn out when `O=C(CSc1nc2ccccc2c(=O)n1-c1ccc(F)cc1)Nc1ccc2c(c1)CCC2` was run?
**A.** -0.69 (inactive)

**Q.** How did the log titer change, negative = reduction turn out when `CCOC(=O)c1c(CN2CCN(CCO)CC2)n(-c2ccccc2)c2cc(Br)c(O)cc12` was run?
**A.** -0.07 (inactive)

**Q.** Which log titer change, negative = reduction does the source give for `CCOc1ccc(NC(=O)c2c(NC(=O)CN3CCN(C)CC3)sc3c2CCC3)cc1` here?
**A.** 0 (inactive)

**Q.** For `CCCN(CCC)CCCNC(=S)Nc1ccc2nc(N3CCCC3)cc(C)c2c1`, which log titer change, negative = reduction is on record?
**A.** -0.33 (inactive)

**Q.** For `Cc1ccc(-c2cc(C(=O)NCCCN3CCCC3)c3ccccc3n2)cc1C`, which log titer change, negative = reduction is on record?
**A.** 0.19 (inactive)

**Q.** With `O=C(CN1C(=O)/C(=C/c2ccc(C(F)(F)F)cc2)Sc2ccccc21)NCCCN1CCOCC1` as the compound, how does the log titer change, negative = reduction read?
**A.** -0.16 (inactive)

**Q.** Which log titer change, negative = reduction does the source give for `COc1cc(CNC(C)(C)CO)cc(Br)c1OCc1ccc(Cl)cc1` here?
**A.** 0.27 (inactive)

**Q.** How did the log titer change, negative = reduction turn out when `CC1CCCN(CCCNC(=O)c2cc3c(s2)-c2ccccc2OC3)C1` (stereo not drawn) was run?
**A.** -0.41 (inactive)

**Q.** With `N=C1C(c2nc(-c3ccc(Cl)cc3)cs2)=C(O)CN1CCCN1CCOCC1` as the compound, how does the log titer change, negative = reduction read?
**A.** 1.48 (inactive)

**Q.** For `Cc1ccc2oc(=O)c3cc(C(=O)NCCCN4CC(C)CC(C)C4)sc3c2c1` (stereo not drawn), which log titer change, negative = reduction is on record?
**A.** 0.31 (inactive)

**Q.** How did the log titer change, negative = reduction turn out when `Cc1cccn2c(=O)c3cc(C(=O)NCCN4CCOCC4)c(=N)n(Cc4ccc(F)cc4)c3nc12` was run?
**A.** -0.03 (inactive)

**Q.** For `CCCN1CCN(CCCNC(=O)c2cc3c(s2)-c2ccccc2OC3)CC1`, which log titer change, negative = reduction is on record?
**A.** 0 (inactive)
